Results reported in patent publication US20100255020A1, “METHOD FOR INDUCING CYTOTOXIC T-CELLS, CYTOTOXIC T-CELL INDUCERS, AND PHARMACEUTICAL COMPOSITIONS AND VACCINES EMPLOYING THEM” (NEC CORPORATION, priority 2007, published 2010).
Values joined by “and” are separate entries in the source; they are usually repeats but may differ in a detail not shown here. Equal entries are not always repeated. Where no end group is shown, it is not given here.

What was measured:
malignant tumors = test: Peptide immunotherapy of patients, tumor response by RECIST criteria (CT/MRI); type: in vivo, human; parameters: key to RECIST, single lung metastasis / RECIST, total sum of longest diameters of 10 metastatic target lesions / RECIST, pubic bone metastatic tumor / RECIST determination 3 months after starting W10 peptide therapy: CR: all target lesions have disappeared; PR: the sum of the longest diameters of the target lesions decreases by at least 30%; PD: the sum of the longest diameters of the target lesions increases by at least 20%; SD: the change of tumr size is between PR or PD
Description: Among 18 patients, 3 people are illustrated in the style of case reports. […] The mixture was prepared immediately prior to administration. When W10 peptide was administered without petussis vaccine in the safety test, W10 peptide solution was divided into 4 equal portions and injected intradermally at 4 locations in the same manner. A method to measure the diameter of a tumor and a method to analyze peptide-specific T-cells using an HLA-A24 tetramer by flow cytometry are described below.
The international RECIST criteria referred to here is an evaluation standard described in Theresse, P. et al., J Natl Cancer Inst. 2000, 92, 205-216. When there is confirmation by helical CT or MRI that all target lesions have disappeared this is defined as CR (complete response), when the sum of the longest diameters of the target lesions decreases by at least 30% this is defined as PR (partial response), when the sum of the longest diameters of the target lesions increases by at least 20% this is defined as PD (progressive disease), and when the change of tumr size is between PR or PD this is defined as SD (stable disease). However, regardless of the presence or absence of a change in the target lesions, when even one new lesion appears this is defined as PD.
Based on the above-mentioned international RECIST criteria, which is used for evaluation of anticancer drugs, all measurable tumors were selected as target tumors, and change in the SLD of the tumors over the course of the therapy was monitored. In addition, number of all the tumors was counted, regardless of the size of a tumor, every time diagnostic imaging was carried out in order to lookout for new lesions. Diagnostic imaging was carried out in principle once a month by helical CT or MRI. If even one new metastasis appeared, regardless of the change in the primary lesion, it was judged as PD.
Clinical responses were evaluated according to the aforementioned international RECIST criteria for 18 patients who had been treated by immunotherapy using W10+Wc for at least 3 months and one week. Eight cased out of 18 patients were judged as SD, 10 cased were PD. […] In reports on peptide immunotherapy so far, the tumor control rate was limited to a few % up to ten or so % worldwide (Reference Documents 1 to 4). Compared with these already reported cases, this is a good reaction.

[1] = tested on: IFN-γ-producing cells in peripheral blood mononuclear cells; test: ELISPOT of patients' PBMCs before and after W10 peptide immunization; type: cell-based, human
Description: In order to compare the cytotoxicity of peripheral blood mononuclear cells between that before administration of 5×10̂8 cells of whole-cell pertussis vaccine and 3 mg of W10 peptide to that after administering it three times, peripheral blood mononuclear cells were cultured with the immunizing peptide under conditions described later, and the number of cells that produced IFN-γ in a peptide-dependent manner were counted. The cells used for the ELISPOT assay are also described later.
The results are shown in FIG. 6 (response of PBMC of patients having HLA-A*2402), FIG. 7 (response of patients having HLA-A*0201), and FIG. 8 (response of patients having HLA-A*0206). The abscissa denotes the peptide that was bound to antigen presenting cells (in the figures, referred to as APCs (antigen presenting cells)), and the ordinate denotes the number of INF-γ-producing cells per 1×10̂4 cells. The response of peripheral blood mononuclear cells one week after three-time immunizations is shown with closed bars, and the response of peripheral blood mononuclear cells collected immediately before immunization is shown with open bars. […]
Peripheral blood mononuclear cells (PBMC) were stimulated in vitro once a week for a total of three times and then, the number of cells that produced IFN-γ in response to the antigen peptide were counted. […]

[2] = tested on: HLA-A*2402 positive cell lines that express WT1 naturally (KAZZ, KCL22, KH88, MEG01); test: Reactivity of WT1 peptide-specific cell lines toward tumor cells (IFN-γ ELISPOT); type: cell-based, human; conditions: cell lines established from HLA-A*2402 positive patients, FIG. 5
Excerpt: Reactions of cell lines established from different patients are arranged in a bar graph.

## ALLPAVPSL [W10]
Malignant tumors; one line per patient case, W10+Wc immunotherapy, weekly intradermal, listed as W10 peptide
  Duration of tumor control (weeks): 37 weeks and 30 weeks and 32 weeks and 10 weeks and 4 weeks and 0 weeks (6×) and 6 weeks and 17 weeks and 19 weeks and 12 weeks and 33 weeks and 38 weeks
Malignant tumors; one line per patient case, W10+Wc immunotherapy, listed as W10 peptide
  RECIST determination 3 months after starting W10 peptide therapy: SD (7×) and SD > PD and PD (the sum of the longest diameters of the target lesions increases by at least 20%) (10×)
Malignant tumors; patient KB07-003, maintained for 37 weeks
  RECIST, pubic bone metastatic tumor: SD
Malignant tumors; patient KB07-003, since W10 therapy started
  New metastatic tumors: no new metastatic tumors have been found
Malignant tumors; patient KB07-005, right femur
  Growth of metastatic tumor in the bone (SLD): almost stopped
Malignant tumors; patient KB07-005, throughout the period
  New distant metastasis: no new distant metastasis was observed
Malignant tumors; patient KB07-006
  Growth of tumors expressing WT1: suppressed
Malignant tumors; patient KB07-006, 13 months after starting W10 peptide
  Appearance of new metastatic lesion: no appearance of a new metastatic lesion
Malignant tumors; patient KB07-006, CT on the 37th week
  RECIST, total sum of longest diameters of 10 metastatic target lesions: PD (the sum of the longest diameters of the target lesions increases by at least 20%)
Malignant tumors; patient KB07-006, adenoid cystic carcinoma, up to 32 weeks
  RECIST, total sum of longest diameters of 10 metastatic target lesions: SD
[1]; patient KB07-006, after 1 mg W10 peptide for 3 weeks
  Number of W10-reactive IFN-γ-producing T-cells: increased
[1]; patients with HLA-A*2402, HLA-A*0201 or HLA-A*0206, 3 mg W10 + Wc x3
  Increase of cells producing IFN-γ in response to W10 peptide after immunization: often observed
[2]
  Reactivity of peptide-dependent cell line toward WT1-expressing cell lines compared with C1R-A24: tends to be higher although differences are small
